# Experimental data reported in article PMC1988858, “Nanosensor Detection of an Immunoregulatory Tryptophan Influx/Kynurenine Efflux Cycle” (PLoS Biology, 2007).
# Columns and labels:
# COS-7 cells [1] = assay: Perfusion ratio imaging of tryptophan uptake and exchange in COS-7 cells expressing FLIPW-CTYT (LAT1-like exchanger); type: cell-based; settings: for Tryptophan export induced by extracellular tryptophan degradation product: tryptophan-preloaded COS-7 cells, DL-HK 200–1,000 μM; for Tryptophan export from the cytosol promoted by extracellular amino acid: COS-7 loaded with tryptophan, amino acid at 100 μM; for Effect on uptake rate of 100 μM L-tryptophan: COS-7, inhibitors at 5 mM
# Protocol: (§1) Cells were cultured at 37 °C and 5% CO2.
# Ratio imaging was performed on an inverted fluorescence microscope (DM IRE2, Leica; http://www.leica.com) with a Quant EM digital camera (Photometrics; http://www.photomet.com) and 20× oil immersion, 63× water immersion lenses (HC PL APO 20×/0.7 or HCX PL APO, Leica). […] A Lambda DG4 (Sutter Instruments; http://www.sutter.com) provided excitation light. Images were acquired within the linear detection range of the camera and exposure times varied between 50 and 200 ms, depending on the expression level, with software binning between 2 and 3. Fluorescence intensities for eCFP and Venus were typically in the range of 6,000–8,000 and 12,000–16,000, respectively. Typical background values were around 1,000. Cells were perfused with Tyrode's buffer supplemented with ligands at flow rates of 1.0 ml/min in a vacuum chamber (Vacu-Cell VC-MPC-TW, C&L Instruments; http://www.fluorescence.com/) with a total volume of 0.1 ml. Buffers were exchanged using an eight-way automated ValveBank (AutoMate; http://www.autom8.com/). Inhibitors BCH and α-(methylamino)isobutyric acid (MeIAB) were used at 5 mM concentrations. For determination of the substrate specificity of tryptophan exchange, all 20 amino acids were tested at 100 μM concentrations.
# KB cells = assay: Perfusion ratio imaging of LAT1-mediated tryptophan uptake and exchange in KB cells expressing FLIPW-CTYT; type: cell-based, human; settings: for Export of intracellular tryptophan upon perfusion (FRET ratio decrease): 100 μM L-His, 200 μM DL-K, 200 μM DL-HK, 1,000 μM HAA
# Protocol: as §1
# Ratio imaging was performed on an inverted fluorescence microscope (DM IRE2, Leica; http://www.leica.com) with a Quant EM digital camera (Photometrics; http://www.photomet.com) and 20× oil immersion, 63× water immersion lenses (HC PL APO 20×/0.7 or HCX PL APO, Leica). Dual emission intensity ratios were simultaneously recorded using a DualView with an OI-5-EM filter set (eCFP 480/30; eYFP 535/40; Optical Insights; http://www.optical-insights.com) and Slidebook 4.2 (Intelligent Imaging Innovations; http://www.intelligent-imaging.com/). A Lambda DG4 (Sutter Instruments; http://www.sutter.com) provided excitation light. Images were acquired within the linear detection range of the camera and exposure times varied between 50 and 200 ms, depending on the expression level, with software binning between 2 and 3. Fluorescence intensities for eCFP and Venus were typically in the range of 6,000–8,000 and 12,000–16,000, respectively. Typical background values were around 1,000. Cells were perfused with Tyrode's buffer supplemented with ligands at flow rates of 1.0 ml/min in a vacuum chamber (Vacu-Cell VC-MPC-TW, C&L Instruments; http://www.fluorescence.com/) with a total volume of 0.1 ml. Buffers were exchanged using an eight-way automated ValveBank (AutoMate; http://www.autom8.com/). Inhibitors BCH and α-(methylamino)isobutyric acid (MeIAB) were used at 5 mM concentrations. For determination of the substrate specificity of tryptophan exchange, all 20 amino acids were tested at 100 μM concentrations. Analyses were repeated at least three times with similar results.
# FLIPW-CTYT = target: T1, FLIPW-CTYT (Escherichia coli, UniProt P0A881); assay: In vitro FRET ligand titration of FLIPW-CTYT; type: binding, E. coli; settings: for FLIPW-CTYT FRET response or interference with tryptophan binding: in vitro, unpublished data; for Kd: 20 mM MOPS pH 7.0
# T1 construct: made in house; host or cells: E. coli BL21(DE3)gold
# Protocol: (§2) The eCFP emission used for the ratio calculation was determined at 485 nm. Protein was diluted to give Venus readouts of 20,000–30,000 at a manual gain of between 70–75. By using the change in FRET ratio upon binding of ligand, affinity constants (K d) were determined by fitting the titration curves to a single-site binding isotherm: [drawing 1] with [L], ligand concentration; n, number of equal binding sites; R, ratio; R apo, ratio in the absence of ligand; and R sat, ratio at saturation with ligand. Three independent protein preparations were analyzed and each protein preparation was analyzed in triplicate.
# FLIPW-CTY = target: T2, FLIPW-CTY (Escherichia coli, UniProt P0A881); assay: In vitro FRET ligand titration of FLIPW-CTY; type: binding, E. coli; settings: for Kd: 20 mM MOPS pH 7.0, read-out: Affinity of FLIPW-CTY for tryptophan substrates
# T2 construct: made in house; host or cells: E. coli BL21(DE3)gold
# Protocol: as §2
# [2] = test system: LAT1-like amino acid exchanger; assay: Velocity of intracellular FLIPW-CTYT FRET response by single-cell imaging versus external L-tryptophan in COS-7 cells perfused with Tyrode's buffer, histidine as counterexchange substrate, Michaelis-Menten fit.; type: cell-based; settings: read-out: affinity of the cells for combined uptake and metabolism of tryptophan
# Protocol: Upon perfusion with 100 μM L-tryptophan, the FRET ratio increased instantaneously, corresponding to rising levels of cytosolic tryptophan. […] This way, cells could be repeatedly loaded with tryptophan and unloaded using histidine (Figure 4A). […] Na^+ independence and BCH sensitivity are characteristic of the transport properties of LAT1- and LAT2-like amino acid counterexchangers. […] LAT2 is expressed in the proximal tubule of the kidney, so it might be expressed in COS-7 cells. In addition, LAT1 is expressed in various human tumor cell lines and, consequently, is likely to be present in COS-7 cells as well.
# (§3) According to the FRET theory, an increase in Venus signal is accompanied by a decrease in eCFP signal. Ratio defined as fluorescence intensity quotient obtained with emission filters 535/40 nm over 480/30 nm. […] Error bars indicate standard deviation. […]
# Ratio imaging was performed on an inverted fluorescence microscope (DM IRE2, Leica; http://www.leica.com) with a Quant EM digital camera (Photometrics; http://www.photomet.com) and 20× oil immersion, 63× water immersion lenses (HC PL APO 20×/0.7 or HCX PL APO, Leica). Dual emission intensity ratios were simultaneously recorded using a DualView with an OI-5-EM filter set (eCFP 480/30; eYFP 535/40; Optical Insights; http://www.optical-insights.com) and Slidebook 4.2 (Intelligent Imaging Innovations; http://www.intelligent-imaging.com/). […]
# LAT1 = target: T3, LAT1 (Homo sapiens, UniProt Q01650); assay: Velocity of intracellular FLIPW-CTYT FRET response by single-cell imaging versus external L-tryptophan in human KB cells perfused with Tyrode's buffer, histidine as counterexchange substrate, Michaelis-Menten fit.; type: cell-based; settings: read-out: affinity of KB cells for combined tryptophan uptake and metabolism under perfusion conditions
# T3 construct: gene SLC7A5; endogenous transporter of KB cells expressing cytosolic FLIPW-CTYT sensor
# T3 sequence (Q01650 whole entry, the tested form may be a part): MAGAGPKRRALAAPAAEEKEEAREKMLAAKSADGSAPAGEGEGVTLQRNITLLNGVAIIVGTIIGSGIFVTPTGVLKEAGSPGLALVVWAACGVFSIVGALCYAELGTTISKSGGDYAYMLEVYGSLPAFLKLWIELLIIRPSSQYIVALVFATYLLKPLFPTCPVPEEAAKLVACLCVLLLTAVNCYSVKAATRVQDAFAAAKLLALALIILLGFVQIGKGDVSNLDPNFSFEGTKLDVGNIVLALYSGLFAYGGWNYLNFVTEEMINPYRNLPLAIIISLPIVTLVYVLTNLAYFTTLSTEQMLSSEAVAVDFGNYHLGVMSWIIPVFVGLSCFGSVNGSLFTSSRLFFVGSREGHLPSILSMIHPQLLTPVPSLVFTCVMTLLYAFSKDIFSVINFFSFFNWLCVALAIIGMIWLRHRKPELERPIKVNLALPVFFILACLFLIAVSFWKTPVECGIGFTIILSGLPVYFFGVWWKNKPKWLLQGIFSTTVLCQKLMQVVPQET
# T3 sequence (P08195 103-630 partner): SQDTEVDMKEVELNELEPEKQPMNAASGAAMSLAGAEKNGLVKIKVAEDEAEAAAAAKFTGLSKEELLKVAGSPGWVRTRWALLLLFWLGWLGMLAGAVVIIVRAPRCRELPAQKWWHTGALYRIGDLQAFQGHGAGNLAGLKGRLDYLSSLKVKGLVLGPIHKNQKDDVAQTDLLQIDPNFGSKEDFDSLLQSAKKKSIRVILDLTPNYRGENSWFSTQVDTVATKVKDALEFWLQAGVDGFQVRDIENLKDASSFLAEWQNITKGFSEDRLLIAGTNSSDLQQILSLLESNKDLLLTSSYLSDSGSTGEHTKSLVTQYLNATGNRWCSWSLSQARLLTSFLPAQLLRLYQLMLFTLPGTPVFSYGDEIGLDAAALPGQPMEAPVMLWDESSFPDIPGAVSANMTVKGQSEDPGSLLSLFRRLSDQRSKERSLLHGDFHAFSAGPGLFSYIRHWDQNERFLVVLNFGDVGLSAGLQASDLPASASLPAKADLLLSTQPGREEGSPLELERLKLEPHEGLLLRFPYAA
# Protocol: KB cells originate from a human oral squamous cell carcinoma and express only LAT1 for uptake of neutral amino acids as shown by reverse-transcriptase (RT)-PCR [37] and RNA interference (RNAi).
# as §3, with “nm. (B) Effect of 5 mM BCH inhibitor on the uptake rate of 100 μM L-tryptophan. Error bars indicate standard deviation.” for “nm.”
# Ratio imaging was performed on an inverted fluorescence microscope (DM IRE2, Leica; http://www.leica.com) with a Quant EM digital camera (Photometrics; http://www.photomet.com) and 20× oil immersion, 63× water immersion lenses (HC PL APO 20×/0.7 or HCX PL APO, Leica). Dual emission intensity ratios were simultaneously recorded using a DualView with an OI-5-EM filter set (eCFP 480/30; eYFP 535/40; Optical Insights; http://www.optical-insights.com) and Slidebook 4.2 (Intelligent Imaging Innovations; http://www.intelligent-imaging.com/). […] Fluorescence intensities for eCFP and Venus were typically in the range of 6,000–8,000 and 12,000–16,000, respectively. […]
# FLIPW-TCTY = target: T4, FLIPW-TCTY (Escherichia coli, UniProt P0A881); assay: FRET ratio (528/485 nm, eCFP excitation 433 nm) titration of purified sensor with L-tryptophan in 20 mM MOPS, pH 7.0, fitted to a single-site binding isotherm.; settings: n = 3
# T4 construct: gene trpR
# Protocol: as §2
# human LAT1 = test system: human LAT1; set-up: method as in PMID 11557028; settings: LAT1 expressed in oocytes, static conditions; cited from earlier work
# COS-7 cells [3] = settings: read-out: Apparent affinity constant KM for combined transport and metabolism; COS-7, 96-well microplate, Tyrode's buffer
# Protocol: COS-7 cells were grown in Dulbecco's modified Eagle's medium (high glucose; DMEM, Gibco; http://www.invitrogen.com) with 10% fetal calf serum and 50 units (U)/ml penicillin and 50 μg/ml streptomycin (Gibco). […] Cells were cultured at 37 °C and 5% CO2. For imaging, cells were cultured in 8-well LabTekII German tissue culture glass slides (Nalge Nunc International; http://www.nalgenunc.com) and transiently transfected at 50%–70% confluence using Lipofectamine 2000 Reagent (Invitrogen) in Opti-MEM I reduced serum medium (Gibco). After transfection, cells were cultured for 16 h in Opti-MEM I followed by 3 h in growth medium prior to imaging.
# Adherent COS-7 cells in 96-well microplates were washed once with 100 μl Tyrode's buffer (119 mM NaCl, 2.5 mM KCl, 2 mM CaCl2, 2 mM MgCl2, 25 mM HEPES, 30 mM glucose, pH 7.3–7.4). The initial FRET ratio was measured by recording the eCFP and Venus emissions at 485 nm and 528 nm, respectively, after excitation of eCFP at 433 nm in a Safire monochromator microplate reader (Tecan). Standard deviation of the initial ratios was less than 10%. After addition of 100 μl tryptophan in Tyrode's buffer the FRET ratio was recorded with 2-min intervals for up to 2 h. Uptake rates were determined from linear parts in the initial FRET change and fitted with the nonlinear regression program Origin 6.1 (OriginLab; http://www.originlab.com).
compound,measurement,setting,value
"Nc1c(O)cccc1C(=O)O [HAA, hydroxy-anthranilic acid]",Tryptophan export induced by extracellular tryptophan degradation product,COS-7 cells [1],did not result in tryptophan export
same,Export of intracellular tryptophan upon perfusion (FRET ratio decrease),KB cells,not
same,FLIPW-CTYT FRET response or interference with tryptophan binding,FLIPW-CTYT,did not result in a FLIPW-CTYT FRET response
N[C@@H](Cc1ccccc1)C(=O)O [phenylalanine],Tryptophan export from the cytosol promoted by extracellular amino acid,COS-7 cells [1],able to promote tryptophan export
CC(C)C[C@H](N)C(=O)O [leucine],Tryptophan export from the cytosol promoted by extracellular amino acid,COS-7 cells [1],able to promote tryptophan export
"NC1(C(=O)O)CC2CCC1C2 (centres unmarked) [BCH, 2-aminobicyclo-(2,2,1)-heptane-2-carboxylic acid]",Effect on uptake rate of 100 μM L-tryptophan,COS-7 cells [1],decreased the uptake of tryptophan
same,Effect on LAT1-mediated uptake of 100 μM L-tryptophan,KB cells; 5 mM BCH,almost completely inhibited
CNC(C)(C)C(=O)O [N-(methylamino)isobutyric acid],Effect on uptake rate of 100 μM L-tryptophan,COS-7 cells [1],did not decrease uptake rates
CSCC[C@H](N)C(=O)O [methionine],Tryptophan export from the cytosol promoted by extracellular amino acid,COS-7 cells [1],able to promote tryptophan export
N[C@@H](Cc1c[nH]cn1)C(=O)O [L-histidine],Tryptophan export from the cytosol promoted by extracellular amino acid,COS-7 cells [1],export of tryptophan from the cytosol
same,Export of intracellular tryptophan upon perfusion (FRET ratio decrease),KB cells,decreased
"Nc1c(O)cccc1C(=O)CC(N)C(=O)O (centres unmarked) [HK, 3-hydroxy-kynurenine]",Tryptophan export induced by extracellular tryptophan degradation product,COS-7 cells [1],tryptophan export
same,Export of intracellular tryptophan upon perfusion (FRET ratio decrease),KB cells,exported
same,FLIPW-CTYT FRET response or interference with tryptophan binding,FLIPW-CTYT,did not result in a FLIPW-CTYT FRET response
"Cc1ccc2[nH]cc(C[C@H](N)C(=O)O)c2c1 [l-5-methyl-tryptophan, 5-methyl-L-tryptophan]",Kd,FLIPW-CTY,60 ± 10 µM
same,Kd,FLIPW-CTYT,25 ± 2 µM
CC(C)[C@H](N)C(=O)O [valine],Tryptophan export from the cytosol promoted by extracellular amino acid,COS-7 cells [1],able to promote tryptophan export
"N[C@H](Cc1c[nH]c2ccccc12)C(=O)O [d-tryptophan, D-tryptophan]",Kd,FLIPW-CTY,3100 ± 300 µM
same,Concentration for decrease of FRET ratio relative to L-tryptophan,"FLIPW-CTY; titration of FLIPW-CTY, higher concentrations than L-tryptophan",about 5 fold
same,Kd,FLIPW-CTYT,1280 ± 100 µM
"N[C@@H](Cc1c[nH]c2ccc(O)cc12)C(=O)O [l-5-hydroxy-tryptophan, 5-hydroxy-L-tryptophan]",Kd,FLIPW-CTY,6000 ± 800 µM
"Nc1ccccc1C(=O)CC(N)C(=O)O (centres unmarked) [K, kynurenine]",Tryptophan export induced by extracellular tryptophan degradation product,COS-7 cells [1],tryptophan export
same,Export of intracellular tryptophan upon perfusion (FRET ratio decrease),KB cells,exported
same,FLIPW-CTYT FRET response or interference with tryptophan binding,FLIPW-CTYT,did not result in a FLIPW-CTYT FRET response
N[C@@H](Cc1c[nH]c2ccccc12)C(=O)O [L-tryptophan],Km,[2],2.6 µM
same,Km,LAT1,5.1 µM
same,Kd,FLIPW-TCTY,20 µM
CC[C@H](C)[C@H](N)C(=O)O [isoleucine],Tryptophan export from the cytosol promoted by extracellular amino acid,COS-7 cells [1],able to promote tryptophan export
"N[C@@H](Cc1c[nH]c2ccccc12)C(=O)O [l-tryptophan, L-tryptophan]",Reported affinity of human LAT1 for tryptophan uptake,human LAT1,21 µM
same,Kd,FLIPW-CTY,220 ± 20 µM
same,Affinity of the cells for combined uptake and metabolism of tryptophan,"COS-7 cells [1]; COS-7, perfusion",2.6 ± 1.1 µM
same,Affinity for combined tryptophan uptake and metabolism,KB cells; perfusion conditions,5.1 ± 1.0 µM
same,Kd,FLIPW-CTYT,100 ± 14 µM
same,Km,COS-7 cells [3],0.88 ± 0.27 µM
N[C@@H](Cc1ccc(O)cc1)C(=O)O [tyrosine],Tryptophan export from the cytosol promoted by extracellular amino acid,COS-7 cells [1],able to promote tryptophan export
